Source: patent publication US20230234931A1, “NON-STEROIDAL ANTI-INFLAMMATORY COMPOUNDS” (University of Houston System, priority 2022, published 2023)

How the values were obtained:
COX-2-10aa-mPGES-1 = molecular target: T1, COX-2-10aa-mPGES-1 (Homo sapiens, UniProt O14684+P35354); assay: Inhibition of PGE2 production in HEK293 cells expressing Enzymelink COX-2-10aa-mPGES-1; assay type: cell-based; conditions: HEK-293 cells, 1, 3 and 10 μM, arachidonic acid 0.5 μM, PGE2 by ELISA, compared with NS-398 (FIG. 9)
T1 construct: COX-2 (fusion partner); gene PTGS2, human entry P35354 by own knowledge; expressed in transfected cells; host or cells: HEK293
T1 sequence (P35354+O14684 with tags, fused parts or gaps): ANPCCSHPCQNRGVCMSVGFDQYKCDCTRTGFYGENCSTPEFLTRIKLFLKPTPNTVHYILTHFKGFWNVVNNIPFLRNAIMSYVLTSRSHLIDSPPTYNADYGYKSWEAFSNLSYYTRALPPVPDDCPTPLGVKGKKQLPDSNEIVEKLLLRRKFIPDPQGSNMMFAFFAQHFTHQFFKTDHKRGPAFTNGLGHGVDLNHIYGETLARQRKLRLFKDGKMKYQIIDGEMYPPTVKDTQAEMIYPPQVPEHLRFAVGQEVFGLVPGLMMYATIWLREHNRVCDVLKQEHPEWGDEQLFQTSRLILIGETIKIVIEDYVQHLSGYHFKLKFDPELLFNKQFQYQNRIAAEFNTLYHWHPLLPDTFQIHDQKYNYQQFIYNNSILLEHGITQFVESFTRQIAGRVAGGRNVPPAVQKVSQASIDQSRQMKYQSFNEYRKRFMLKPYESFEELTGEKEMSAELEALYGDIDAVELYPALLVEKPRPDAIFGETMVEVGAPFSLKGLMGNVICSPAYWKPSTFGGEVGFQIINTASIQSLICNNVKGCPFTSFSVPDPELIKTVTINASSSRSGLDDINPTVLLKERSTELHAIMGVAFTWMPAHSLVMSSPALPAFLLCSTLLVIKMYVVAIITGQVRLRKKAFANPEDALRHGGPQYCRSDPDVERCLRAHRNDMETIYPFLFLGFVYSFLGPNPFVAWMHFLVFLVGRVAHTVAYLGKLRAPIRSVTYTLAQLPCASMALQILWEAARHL
Description: FIG. 9. Dose response curves for the effects of the synthesized derivatives on mPGES-1-synthesized inflammatory PGE2, compared with COX-2 inhibitor. HEK-293 cells expressing inflammatory PGE-producing Enzymelink, COX-2-10aa-mPGES-1 described previously (11) were treated with increasing concentrations (1 μM, 3 μM, and 10 μM), of the derivatives. Arachidonic acid (0.5 μM) was added to initiate the biosynthesis of PGE2 through COX-2 and mPGES-1 catalysis (11). The produced PGE2 was detected by ELISA (11). COX-2 inhibitor, NS-398 was used as positive control. An unrelated chemical compound (#6) was used as a negative control.
COX linked PG synthase cDNAs of the hybrid enzyme COX-2 C-terminus was linked to the PGES N-terminus with 10 amino acids (COX-2-10aa-PGES) was constructed by a polymerase chain reaction (PCR) cloning approach. The resultant cDNA was sub-cloned into pcDNATM3.1 vectors containing a cytomegalovirus immediate-early promoter (11, 16).
The recombinant enzyme was expressed in HEK293 cells. […] The enzyme expressions were determined by a Western blot analysis. […]
The effect of compounds that inhibited PGE2 production were determined by HPLC. […]
The inhibitory effect on PGE2 production by mPGES-1 was determined by using previously developed HEK293 cells expressing our engineered Enzymelink, COX-2-10aa-mPGES-1.

PC-3 cells = assay: Cancer cell PC-3 migration assay (gap size); assay type: cell-based; conditions: after 39 hours of culture, compared with NS-398
Description: FIG. 10A-C. Anti-inflammatory and anti-cancer activities in cell cultural conditions. PC-3 migration assay treated with the lead compound #10. FIG. 10A The representative images of the PC-3 migration at 0 hour (left) and 39 hours (right) with DMSO, NS-398, and #10. FIG. 10B The time-course gap size of the PC-3 migration. The gap size was obtained using NIS-element software (NIKON). n=6. FIG. 10C Quantitative and significant analyses.
One day before the experiment, about 8.4×10^6 of PC-3 cells were cultured in 6-well plates with 2 mL of growth medium. A marker line was drawn on the outside plates to identify viewing spots. The medium was pre-warmed, and each treatment (DMSO, NS-398, and #10) was mixed with the medium. The cells were washed with PBS and replaced with 1.5 mL of medium containing a treatment, and observed at 0, 15, 24, and 39-hour points. NIS-element AR 3.0 (Nikon Instruments Inc.) software was used to take images at different time points with 10× magnification, and to measure gap sizes.
Inflammation is a factor that stimulates cell migration and is associated with a wide range of ailments including cancer (29). Inflammatory PGE2 produced by mPGES-1 has been reported to be directly associated with cancer cell migration and development (30-33). […] After 39 hours of culture, the gaps were measured (FIG. 10A) and quantified (FIG. 10B and FIG. 10C). […]

| Compound | inhibition of inflammatory PGE2 production (COX-2-10aa-mPGES-1) | inhibition of cancer cell migration within the gaps (PC-3 cells) |
| --- | --- | --- |
| 2-[4-(trimethyl) phenyl]-1,3-benzoxazol-5-amine [3-Methyl] | able to inhibit inflammatory PGE2 production with very similar dose-response concentrations of the COX-2 inhibitor | very effective inhibition of cancer cell migration |
| Nc1ccc2oc(-c3ccc(C(F)(F)F)cc3)nc2c1 [3-F, 2-[4-(trifluoromethyl)phenyl]-1,3-benzoxazol-5-amine] | able to inhibit inflammatory PGE2 production with very similar dose-response concentrations of the COX-2 inhibitor | very effective inhibition of cancer cell migration |
